According to US20150292023A1, “Materials and Methods Related to NSAID Chemoprevention in Colorectal Cancer” (priority 2011, published 2015):
Like-named read-outs stand apart in the source and are kept apart here.

Experiments:
[1] = test system: Msh2^flox/floxVpC^+/+ (LS/HNPCC) mice; experiment: Kaplan-Meier survival of LS/HNPCC mice treated with NSAIDs in diet; type: in vivo, mouse
Protocol: (§1) Cohorts of equivalent gender Msh2^flox/floxVpC^+/+ mice were treated with NSAIDs including ASA that were mixed with powdered diet and administered ad libitum. VpC^+/+ (Msh2^++) mice were similarly examined to control for potentially confounding effects of continuous Cre expression in the intestine. Kaplan-Meier survival analyses were generated for each NSAID treatment (FIG. 2).
A mouse model where exon 12 of Msh2 is flanked by LoxP recombination sites (Msh2^flox/flox) was generated. […] When considering the utility of this mouse model it is important to note that while modern day LS/HNPCC largely occurs in the colon, it was originally described as a gastric cancer.
The endpoint for the chemopreventive analysis of NSAIDs on mouse tumorigenesis is survival. Assessment of tumor kinetics, treatment regimes and pathological changes during tumor development constitute a correlative quantitative database.

[2] = test system: intestinal tumors of LS/HNPCC mice; experiment: Tumor number and pathology following NSAID treatment; details: for numbers of tumors when sacrificed: untreated 1.90±1.02, statistically equivalent
SMC1a mRNA = details: intestinal tissue
Protocol: (§2) Groups of 12 mice were continuously treated (6 VpC^+/+ wild type and 6 Msh2^flox/floxVpC^+/+ LS/HNPCC mice) with each of the eight NSAIDs and the intestines were harvested after two months exposure. A 0.5 cm section of intestine 2.5 cm proximal of the cecum was harvested from each individually treated mouse. High quality mRNA and miRNA was prepared for expression array analysis. To reduce the possibility of day-to-day variation the hybridization of all samples was performed simultaneously as well as sequential expression analysis. Transcriptome expression data from both the mRNA and miRNA chips was analyzed.
(§3) Identifying functional and regulatory connectivity among the differentially regulated miRs and mRNAs was analyzed to begin to determine biological pathways and networks responsible for NSAID-mediated tumor chemoprevention,. A combination of tools were used to deconvolute network interactions, including the ToppGene, ToppCluster, and ToppMir tools.

miR-135a = details: intestinal tissue
Protocol: as §2, §3

miR-9 = details: intestinal tissue
Protocol: as §2, §3

[3] = test system: MMR-deficient human colon tumor cells; experiment: MSI suppression in MMR-defective cells; type: cell-based; details: for MSI suppression (in words): long-term exposure of MMR-defective cells
Source text: Inhibition of cyclooxygenase-1 (COX1) or COX2 activity that is involved in the production of inflammatory prostaglandins was, in the past, generally considered a mechanism for cancer chemoprevention by NSAIDs.

[4] = test system: microsatellite instability (MSI) in intestinal tissues of LS/HNPCC mice; experiment: MSI analysis of tissues by small pool PCR (comparative MSI, Bethesda Criteria); type: in vivo, mouse; details: for conversion of MSI to MSS (in words): intestinal compartment of treated mice; for comparative MSI-H proportion: intestinal tumor vs matched adjacent normal tissue, untreated 33%
Protocol: A MSI analysis on tissues from the ASA and NO-ASA treatment groups by small pool PCR (1-10 genomic equivalents) was performed to determine the distribution of novel alleles between constitutional DNA (Ear, E) as well as normal (N) and tumor (T) intestinal tissues. When multiple samples of each tissue were analyzed, the resulting profiles comprised a representational distribution of the intrinsic allelic diversity. Ear tissues from these mice were consistently MSS, with the major allele always flanked by a relatively unvarying pattern of alleles that arise from PCR amplification-artifacts. Normal and intestinal tissues from ASA and NO-ASA treated mice show variation in major allele sizes and distributions.
A comparative assessment of MSI status was made between intestinal tumors and their matched adjacent normal tissues by determining the absolute changes in microsatellite alterations between them. Comparative MSI provides a quantitative measure of the relative differences in instability between adjacent developmentally related normal and tumor tissues. The Bethesda Criteria for diagnostic microsatellite instability was used: MSS, no changes in microsatellite marker status; high microsatellite instability (MSI-H; ≧2 of 5 markers different).

VpC^+/+ (wild type) mice = test system: VpC^+/+ (wild type) mice
Protocol: as §1

LS/HNPCC patients = details: cited from earlier work; for decrease in the rate of tumor formation / tumor incidence: long-term aspirin exposure (benefit after 5 yrs) vs placebo-treated cohort

NO-sulindac sulphone
effect on survival (in words) ([1]; LS/HNPCC mice vs untreated): No Effect

COc1ccc2cc([C@H](C)C(=O)O)ccc2c1 [Naproxen, naproxen]
mean survival ([1]; 166 mg/kg naproxen in diet): 545 days
mean survival ([1]; 331 mg/kg naproxen in diet): 569 days
effect on survival (in words) ([1]; LS/HNPCC mice vs untreated): nearly double the life span of untreated animals
increase in life span (FIG. 2 grouping) ([1]; representative survival data, vs untreated LS/HNPCC mice): ~100%
numbers of tumors when sacrificed [2]: 1.58±0.67
SMC1a mRNA expression (in words) (SMC1a mRNA): enhanced
miR-135a expression (in words) (miR-135a): down-regulated
miR-9 expression (in words) (miR-9): down-regulated

nitric oxide-donating sulindac [NO-Sulindac]
effect on survival (in words) ([1]; mouse, in vivo): increased survival similar to ASA

nitric oxide-donating acetylsalicylic acid [NO-ASA]
mean survival ([1]; 72 mg/kg NO-ASA in diet): 403 days
effect on survival (in words) ([1]; LS/HNPCC mice vs untreated): suppressed tumorigenesis and increased survival
dose suppressing MSI, fold lower than ASA ([3]; relative to ASA): 300-3000 fold
numbers of tumors when sacrificed [2]: 1.78±1.25
conversion of MSI to MSS (in words) [4]: at least partially converted MSI to MSS
comparative MSI-H proportion [4]: 20%

CC1=C(CC(=O)O)c2cc(F)ccc2/C1=C\c1ccc(S(C)(=O)=O)cc1 [Sulindac Sulfone, sulindac sulfone]
effect on survival (in words) ([1]; LS/HNPCC mice vs untreated): No Effect

CC1=C(CC(=O)O)c2cc(F)ccc2/C1=C\c1ccc([S+](C)[O-])cc1 (centres unmarked) [Sulindac, sulindac]
effect on survival (in words) ([1]; LS/HNPCC mice vs untreated): increased survival similar to ASA
MSI suppression (in words) [3]: suppressed MSI
number of cecal cancers (in words) [2]: increases the number of cecal cancers
tumor induction in wild type controls (in words) (VpC^+/+ (wild type) mice; mouse, in vivo): induces tumors in the wild type controls
survival of wild type mice (in words) (VpC^+/+ (wild type) mice; wild type controls, FIG. 2B): significant reduce the survival of the wild type mice

CC(=O)Oc1ccccc1C(=O)O [ASA, Acetylsalicylic acid]
mean survival ([1]; 400 mg/kg ASA in diet, untreated median 333 days, p<0.001): 393 days
increase in lifespan ([1]; 400 mg/kg ASA vs untreated): 18%
effect on survival (in words) ([1]; LS/HNPCC mice vs untreated): suppressed tumorigenesis and increased survival
MSI suppression (in words) [3]: suppressed MSI
numbers of tumors when sacrificed [2]: 1.68±0.72
Hazard Ratio (HR) (LS/HNPCC patients; 600 mg aspirin daily vs placebo, tumors by yearly colonoscopy, p=0.02): 0.61(0.1 9, 0.86)
decrease in the rate of tumor formation / tumor incidence (LS/HNPCC patients): ≥ 2 fold
decrease in the rate of tumor formation / tumor incidence (LS/HNPCC patients; listed as aspirin): at least 2 fold
conversion of MSI to MSS (in words) [4]: at least partially converted MSI to MSS
comparative MSI-H proportion [4]: 22%
